Measurements published in ChEMBL document CHEMBL1201862, “PubChem BioAssay data set” (2004).
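Interpolation was linear, between the two tested concentrations surrounding the appropriate level; five concentrations were tested over 48 hours in 96-well plates. GI50: concentration for 50% inhibition of growth.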 The source made the active and inactive calls. Cut-off read from the data, not from the text of the source: active = GI50 up to about 1.1 µM and inactive = higher.

What was measured:
Assay in all cases: DTP human tumour cell line panel, 48 h
DLD-1 = test system: DLD-1
DMS-114 = test system: DMS-114
DMS-273 = test system: DMS-273
KM-20L2 = test system: KM-20L2
LXFL 529 = test system: LXFL 529
M19-MEL = test system: M19-MEL
RXF 631 = test system: RXF 631
SNB-78 = test system: SNB-78
XF498 = test system: XF498

SMILES	GI50 (DLD-1)	GI50 (DMS-114)	GI50 (DMS-273)	GI50 (KM-20L2)	GI50 (LXFL 529)	GI50 (M19-MEL)	GI50 (RXF 631)	GI50 (SNB-78)	GI50 (XF498)
COc1ccc(NCc2cc(OC)cc(OC)c2)cc1	32.6 µM (inactive)	6.53 µM (inactive)	6.15 µM (inactive)	10.7 µM (inactive)	26.2 µM (inactive)	15.1 µM (inactive)	10.5 µM (inactive)	19.6 µM (inactive)	4.3 µM (inactive)
CC(=O)Nc1ccc(/C=c2\sc3nnc(/C=C/c4ccccc4)n3c2=O)cc1	> 50 µM (inactive)	> 50 µM (inactive)	> 50 µM (inactive)	> 50 µM (inactive)	> 50 µM (inactive)	> 50 µM (inactive)	> 50 µM (inactive)	> 50 µM (inactive)	> 50 µM (inactive)
CCc1cccc(C)c1NC(=S)NC(=O)c1ccccc1C(=O)NC(=S)Nc1c(C)cccc1CC	> 100 µM (inactive)	29.9 µM (inactive)	95.3 µM (inactive)	91.8 µM (inactive)	85.5 µM (inactive)	39.2 µM (inactive)	–	> 100 µM (inactive)	–
O=C1/C(=C/c2ccc(O)cc2)CCC1CNc1ccc(Cl)cc1 (stereo not given)	0.912 µM (active)	1.31 µM (inactive)	0.836 µM (active)	0.579 µM (active)	0.357 µM (active)	1.79 µM (inactive)	8.89 µM (inactive)	12.5 µM (inactive)	2.7 µM (inactive)
CC(C)c1cccc(C(C)C)c1NC(=O)C(=O)C(C(=O)c1ccc2ccccc2c1)C1OC(=O)c2ccccc21 (stereo not given)	> 100 µM (inactive)	> 100 µM (inactive)	–	–	> 100 µM (inactive)	26.7 µM (inactive)	–	> 100 µM (inactive)	–
COC1CCC2C(=O)CCCC2O1 (stereo not given)	> 100 µM (inactive)	> 100 µM (inactive)	> 100 µM (inactive)	> 100 µM (inactive)	> 100 µM (inactive)	> 100 µM (inactive)	> 100 µM (inactive)	> 100 µM (inactive)	> 100 µM (inactive)
N#CC(NNC(=O)c1ccccc1O)c1c(O)ccc2ccccc12 (stereo not given)	2.06 µM (inactive)	1.87 µM (inactive)	2.52 µM (inactive)	17.9 µM (inactive)	3.76 µM (inactive)	1.78 µM (inactive)	–	19.8 µM (inactive)	–
CC(C)[Si](OCC1CC(C#N)OC(C)(C)O1)(C(C)C)C(C)C (stereo not given)	44.4 µM (inactive)	> 10 µM (inactive)	19.2 µM (inactive)	21.9 µM (inactive)	–	25.2 µM (inactive)	–	20.5 µM (inactive)	21 µM (inactive)
O=C1OC(Cl)C(N=P(c2ccccc2)(c2ccccc2)c2ccccc2)=C1Cl (stereo not given)	> 100 µM (inactive)	> 100 µM (inactive)	> 100 µM (inactive)	–	> 100 µM (inactive)	> 100 µM (inactive)	–	37.9 µM (inactive)	> 100 µM (inactive)
CSC(=S)N(C)NC(=O)c1cccc(C(=O)NN(C)C(=S)SC)n1	27.2 µM (inactive)	1.36 µM (inactive)	14.1 µM (inactive)	4.07 µM (inactive)	10.4 µM (inactive)	31 µM (inactive)	–	27.7 µM (inactive)	–
Cc1ccc(/C=C/C(=O)C(C)C)cc1	51.9 µM (inactive)	42.2 µM (inactive)	–	14.2 µM (inactive)	33.8 µM (inactive)	64 µM (inactive)	–	64.7 µM (inactive)	–
COC(=O)CC1CC2(C(=O)OC)c3[nH]c4ccccc4c3CCN2C1=O (stereo not given)	> 100 µM (inactive)	> 100 µM (inactive)	> 100 µM (inactive)	> 100 µM (inactive)	> 100 µM (inactive)	> 100 µM (inactive)	17.5 µM (inactive)	> 100 µM (inactive)	> 100 µM (inactive)
O=C(O)C1=C(O)C(C(=O)O)C23CCCCCCCCCCC12C(C(=O)O)C(O)=C3C(=O)O (stereo not given)	> 100 µM (inactive)	> 100 µM (inactive)	> 100 µM (inactive)	–	> 100 µM (inactive)	> 100 µM (inactive)	–	–	> 100 µM (inactive)
CC(C)CCCC(C)[C@H]1CCC2[C@H]3C(CC[C@@]21C)[C@@]1(C)CCC=C[C@]12C[C@@H]2[C@@H]3O (stereo not given in full)	> 100 µM (inactive)	> 100 µM (inactive)	> 100 µM (inactive)	> 100 µM (inactive)	> 100 µM (inactive)	–	> 100 µM (inactive)	> 100 µM (inactive)	–
CN(C)CCNc1nc(-c2cccs2)cc(-c2cccs2)n1	22.5 µM (inactive)	8.73 µM (inactive)	10.8 µM (inactive)	–	14.8 µM (inactive)	–	–	16.9 µM (inactive)	3.39 µM (inactive)
